# From patent publication US8383637B2, “2-amino-quinazoline derivatives useful as inhibitors of β-secretase (BACE)” (Jansssen Pharmaceutica N.V., priority 2004, dated 2013)
# Molecular target: T1, β-secretase(BACE) (Homo sapiens, UniProt P56817)
# T1 construct: purchased Panvera
# Experiment: BACE FS1% Inhibition Assay
# Type: biochemical
# Settings: FS1 substrate; for inhibition at 0.3 µM: read-out: % Inhibition (FS) 0.3 μM; for inhibition at 1 µM: read-out: % Inhibition (FS) 1 μM; for inhibition at 3 µM: read-out: % Inhibition (FS) 3 μM
# Procedure: BACE FS1% Inhibition Assay The following reagents were used in this assay: sodium acetate, PEG8000 (Sigma), DMSO, HEPES, FS1 substrate [[…]] […] The FS1-substrate stock solution was prepared in DMSO as a 10 mg/mL solution. The FS1-substrate working solution was prepared by diluting the 10 mg/mL stock solution with substrate assay buffer to a final concentration of 300 μg/mL. The β-secretase (BACE) working solution was prepared by diluting a 0.83 mg/mL BACE stock solution with enzyme assay buffer to a final concentration of 4 μg/mL. Test compounds were dissolved in DMSO to 10 mM. […] The screening procedure for this assay was as follows: 15 μL of BACE working solution was pipetted into each well of a 96-well plate. To each well was then pipetted 2 μL of test compound at the selected concentration. Test compound and BACE were then mixed with a pipettor and incubated for 20 min at room temperature. To each well was then added 10 μL of the FS1 substrate working solution. The plates were then incubated for 1 hour at room temperature. […] The procedure for the blank was as follows. 15 μL of assay buffer was pipetted into each well to be used as a blank control. To each well was then added 2 μL of vehicle and 10 μL of FS1-substrate working solution. The plates were then incubated for 1 hour at room temperature. […] The procedure for the positive control was as follows: 15 μL of BACE working solution was pipetted into each well to be used as a positive control. To each well was then pipetted 2 μL of vehicle. Vehicle and BACE were then mixed with a pipettor and incubated for 20 min at room temperature. To each well was then added 10 μL of the FS1 substrate working solution. The plates were then incubated for 1 hour at room temperature. […] For test compounds, % inhibition was determined at each concentration as follows: [formula]
# T1 sequence (P56817 46-501): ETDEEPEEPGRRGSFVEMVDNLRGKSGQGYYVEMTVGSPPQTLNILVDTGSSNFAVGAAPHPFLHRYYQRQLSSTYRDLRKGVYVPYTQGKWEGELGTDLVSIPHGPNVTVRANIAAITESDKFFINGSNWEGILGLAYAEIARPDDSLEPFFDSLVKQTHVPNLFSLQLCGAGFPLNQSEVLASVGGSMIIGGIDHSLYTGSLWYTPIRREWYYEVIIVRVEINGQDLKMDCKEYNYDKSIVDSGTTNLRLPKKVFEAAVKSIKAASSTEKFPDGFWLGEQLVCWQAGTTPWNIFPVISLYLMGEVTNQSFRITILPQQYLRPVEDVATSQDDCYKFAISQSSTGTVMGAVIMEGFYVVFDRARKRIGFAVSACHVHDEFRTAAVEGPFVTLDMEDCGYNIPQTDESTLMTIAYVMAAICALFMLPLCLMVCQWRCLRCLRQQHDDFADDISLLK
% Inhibition (FS) 0.3 μM (0.3 μM test compound) [%],% Inhibition (FS) 1 μM (1 μM test compound) [%],% Inhibition (FS) 3 μM (3 μM test compound) [%],Compound,further results
–,–,–,CC(=O)N1CCC(C(=O)NCCN2Cc3cc(-c4ccccc4)ccc3N=C2N)CC1 [Compound 702],% Inhibition (FS) (0.3 μM test compound): <30%; % Inhibition (FS) (1 μM test compound): <30%; % Inhibition (FS) (3 μM test compound): <30%
–,–,–,"NC1=Nc2ccc(Oc3ccccc3)cc2CN1C(CC(=O)NC1CC2CCC1C2)C1CCCCC1 (stereo not drawn) [Compound 400, 3-(2-Amino-6-phenoxy-4H-quinazolin-3-yl)-N-bicyclo[2.2.1]hept-2-yl-3-cyclohexyl-propionamide]",inhibition at 0.3 µM (0.3 μM test compound): < 30%; inhibition at 1 µM (1 μM test compound): < 30%; inhibition at 3 µM (3 μM test compound): 94%
31,63,91,CCCC(=O)NCCN1Cc2cc(-c3ccccc3Cl)ccc2N=C1N [Compound 652],–
<30,<30,77,NC1=Nc2ccc(Oc3ccccc3)cc2CN1C(CC(=O)NC1CCCCC1)C1CCCCC1 (stereo not drawn) [Compound 300],–
<30,30,70,CN(C(=O)CCC(C1CCCCC1)N1Cc2cc(Oc3ccccc3)ccc2N=C1N)C1CCOCC1 (stereo not drawn) [Compound 633],–
<30,<30,<30,CC(=O)c1cccc(-c2ccc3c(c2)CN(CCNC(=O)c2cc(C)oc2C)C(N)=N3)c1 [Compound 588],–
<30,<30,59,Cc1cc(C(=O)NCCN2Cc3cc(-c4ccccc4)ccc3N=C2N)c(C)o1 [Compound 586],–
<30,31,42,CN(C(=O)c1cccc(CN2Cc3cc(-c4cccc(-c5ccccc5)c4)ccc3N=C2N)c1)C1CCCCC1 [Compound 171],–
<30,<30,<30,COc1cccc(COc2ccc3c(c2)CN(Cc2cccc(C(=O)N(C)C4CCCCC4)c2)C(N)=N3)c1 [Compound 514],–
<30,<30,<30,CC(C)CCC(=O)NCC(Cc1ccc(O)cc1)N1Cc2cc(Oc3ccccc3)ccc2N=C1N (stereo not drawn) [Compound 615],–
37,63,96,NC1=Nc2ccc(-c3ccccc3F)cc2CN1CCNC(=O)C1CCC1 [Compound 642],–
<30,<30,56,NC1=Nc2ccc(-c3cccc(C(F)(F)F)c3)cc2CN1CCNC(=O)CC1CCCC1 [Compound 584],–
<30,30,71,CN(C(=O)c1cccc(CN2Cc3cc([S+]([O-])c4ccccc4)ccc3N=C2N)c1)C1CCCCC1 (stereo not drawn) [Compound 549],–
<30,<30,<30,COc1cccc(OC)c1Oc1ccc2c(c1)CN(Cc1cccc(C(=O)N(C)C3CCCCC3)c1)C(N)=N2 [Compound 477],–
<30,<30,<30,CS(=O)(=O)Nc1ccccc1-c1ccc2c(c1)CN(CCNC(=O)C1CCCCC1)C(N)=N2 [Compound 539],–
<30,<30,<30,NC1=Nc2ccc(Oc3ccccc3)cc2CN1Cc1ocnc1C(=O)NC1CCCCC1 [Compound 640],–
<30,33,88,COc1cccc(Nc2ccc3c(c2)CN(Cc2cccc(C(=O)N(C)C4CCCCC4)c2)C(N)=N3)c1 [Compound 433],–
<30,<30,31,CC(C)(C)C1CCC(C(=O)NCCN2Cc3cc(Oc4ccccc4)ccc3N=C2N)CC1 (stereo not drawn) [Compound 184],–
<30,<30,49,COc1ccccc1-c1ccc2c(c1)CN(CCNC(=O)CCN)C(N)=N2 [Compound 493],–
<30,57,43,CN(C(=O)c1cccc(CN2Cc3cc(Oc4ccccc4-c4ccccc4)ccc3N=C2N)c1)C1CCCCC1 [Compound 234],–

% Inhibition (FS) 0.3 μM (0.3 μM test compound) [%],% Inhibition (FS) 1 μM (1 μM test compound) [%],% Inhibition (FS) 3 μM (3 μM test compound) [%],Compound,further results
48,90,108,NC1=Nc2ccc(Oc3ccccc3)cc2CN1CCNC(=O)C(c1ccccc1)c1ccccc1 [Compound 207],–
79,106,116,NC1=Nc2ccc(Oc3ccccc3)cc2CN1C(CNC(=O)C1CCCC1)C1CCCCC1 (stereo not drawn) [Compound 295],–
<30,35,<30,CC(=O)Nc1cccc(Oc2ccc3c(c2)CN(Cc2cccc(C(=O)N(C)C4CCCCC4)c2)C(N)=N3)c1 [Compound 229],–
<30,<30,65,NC1=Nc2ccc(-c3cccc(CO)c3)cc2CN1CCNC(=O)Cc1ccccc1 [Compound 599],–
–,–,–,Cc1ccccc1-c1ccc2c(c1)CN(CCNC(=O)CCC(F)(F)F)C(N)=N2 [Compound 678],% Inhibition (FS) (0.3 μM test compound): 51%; % Inhibition (FS) (1 μM test compound): 88%; % Inhibition (FS) (3 μM test compound): 99%
–,–,–,CCCCC(CC)C(=O)NCCN1Cc2cc(-c3ccccc3C)ccc2N=C1N (stereo not drawn) [Compound 662],% Inhibition (FS) (0.3 μM test compound): 66%; % Inhibition (FS) (1 μM test compound): 97%; % Inhibition (FS) (3 μM test compound): 109%
<30,<30,<30,CCCCCCCCC(CCC(=O)N(C)C1CCCCC1)N1Cc2cc(Oc3ccccc3)ccc2N=C1N (stereo not drawn) [Compound 210],–
–,–,–,"NC1=Nc2ccc(Oc3ccccc3)cc2CN1C[C@H](NC(=O)C1CCCCC1)C1CCCCC1 [Compound 636, (R)-enantiomer of cyclohexanecarboxylic acid [2-(2-amino-6-phenoxy-4H-quinazolin-3-yl)-1-cyclohexyl-ethyl]-amide]",inhibition at 0.3 µM (0.3 μM test compound): < 30%; inhibition at 1 µM (1 μM test compound): < 30%; inhibition at 3 µM (3 μM test compound): 30%
<30,<30,<30,CN1CCC(N(C)C(=O)c2cccc(CN3Cc4cc(Oc5ccccc5)ccc4N=C3N)c2)CC1 [Compound 223],–
<30,<30,<30,CN(C(=O)c1cccc(CN2Cc3cc(-c4cn[nH]c4)ccc3N=C2N)c1)C1CCCCC1 [Compound 161],–
–,–,–,CN(C(=O)CCC(C1CCCCC1)N1Cc2cc(Oc3ccccc3)ccc2N=C1N)C(COCc1ccccc1)C(=O)O (stereo not drawn) [Compound 781],% Inhibition (FS) (0.3 μM test compound): 106%; % Inhibition (FS) (1 μM test compound): 109%; % Inhibition (FS) (3 μM test compound): 121%
<30,<30,48,CC(C)c1ccc(Sc2ccc3c(c2)CN(Cc2cccc(C(=O)N(C)C4CCCCC4)c2)C(N)=N3)cc1 [Compound 407],–
<30,<30,44,NC1=Nc2ccc(Oc3ccccc3)cc2CN1C1CCN(C(=O)C23CC4CC(CC(C4)C2)C3)CC1 [Compound 524],–
<30,<30,38,CN(C(=O)c1cccc(CN2Cc3cc(Oc4ccccc4-n4cccc4)ccc3N=C2N)c1)C1CCCCC1 [Compound 471],–
<30,<30,<30,CN(C)c1ccc(Nc2ccc3c(c2)CN(Cc2cccc(C(=O)N(C)C4CCCCC4)c2)C(N)=N3)cc1 [Compound 438],–
–,–,–,CC(C)CCC(=O)NCCN1Cc2cc(-c3ccc4ccccc4c3)ccc2N=C1N [Compound 668],% Inhibition (FS) (0.3 μM test compound): <30%; % Inhibition (FS) (1 μM test compound): <30%; % Inhibition (FS) (3 μM test compound): <30%
<30,<30,90,CCCCCC(CCC(=O)NC1CCCCCC1)N1Cc2cc(Oc3ccccc3)ccc2N=C1N (stereo not drawn) [Compound 150],–
32,70,104,NC1=Nc2ccc(-c3ccccc3)cc2CN1CCNC(=O)Cc1ccccc1 [Compound 595],–
<30,<30,36,CCCC(CCC)C(=O)N1CCCCC(N2Cc3cc(Oc4ccccc4)ccc3N=C2N)C1 (stereo not drawn) [Compound 552],–
<30,<30,55,COc1ccc(Sc2ccc3c(c2)CN(Cc2cccc(C(=O)N(C)C4CCCCC4)c2)C(N)=N3)cc1OC [Compound 411],–
